Laboratory results reported in US20230093861A1, “RAPAMYCIN ANALOGS AS MTOR INHIBITORS” (Revolution Medicines, Inc., priority 2017, published 2023).
Where two headings read alike, the source gives them in different places.

Columns and labels:
P-P70S6K (T389) = assay: Cell based AlphaLISA assay, inhibition of P-P70S6K (T389) (mTORC1 substrate phosphorylation) in MDA-MB-468 cells; details: Homo sapiens, 4 h, AlphaLISA, two to four hours at 37° C., read-out: pIC50 for Inhibition of mTORC1 and mTORC2 Substrate Phosphorylation, P-P70S6K-(T389) (converted)
Summary of the method: (§1)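 After treatment, cells were lysed in the kit's buffer once assay medium was withdrawn. Duplicate Alpha measurements tracked each phospho-epitope, and dose-response data were fitted to IC50 following normalization to control wells.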

P-4E-BP1 (T37/46) = assay: Cell based AlphaLISA assay, inhibition of P-4E-BP1 (T37/46) (mTORC1 substrate phosphorylation) in MDA-MB-468 cells; details: Homo sapiens, AlphaLISA, two to four hours at 37° C., read-out: pIC50 for Inhibition of mTORC1 and mTORC2 Substrate Phosphorylation, P-4E-BP1-(T37/46) (converted)
Summary of the method: as §1

P-Akt (S473) = assay: Cell based AlphaLISA assay, inhibition of P-Akt (S473) (mTORC2 substrate phosphorylation) in MDA-MB-468 cells; details: Homo sapiens, AlphaLISA, two to four hours at 37° C., read-out: pIC50 for Inhibition of mTORC1 and mTORC2 Substrate Phosphorylation, p-AKT 1/2/3 -(S473) (converted)
Summary of the method: as §1

Molecule `CO/N=C1/C[C@@H]([C@H](C)C[C@@H]2CC[C@H](n3cc(CCCC(=O)NCCOCCOCCOCCC(=O)NCCOCCOCCOCCC(=O)NCCCCn4nc(-c5cc6cc(O)ccc6[nH]5)c5c(N)ncnc54)nn3)[C@H](OC)C2)OC(=O)[C@@H]2CCCCN2C(=O)C(=O)[C@]2(O)O[C@@H](CC[C@H]2C)C[C@H](OC)/C(C)=C/C=C/C=C/[C@@H](C)C[C@@H](C)C(=O)[C@H](OC)[C@H](O)/C(C)=C/[C@H]1C` [Example 172] has an IC50 (P-P70S6K (T389)) of 10 to 1000 nM, an IC50 (P-4E-BP1 (T37/46); MDA-MB-468, 4 h) greater than 1000 nM and an IC50 (P-Akt (S473); MDA-MB-468, 4 h) greater than 1000 nM.

With `CO[C@H]1C[C@@H]2CC[C@@H](C)[C@@](O)(O2)C(=O)C(=O)N2CCCC[C@H]2C(=O)O[C@H]([C@H](C)C[C@@H]2CC[C@@H](O)[C@H](OC)C2)C[C@@H](O)[C@H](C)/C=C(\C)[C@@H](O)[C@@H](OC)C(=NOCc2cn(CCOCCOCCOCCOCCOCCOCCC(=O)NCCCCn3nc(-c4cc5cc(O)ccc5[nH]4)c4c(N)ncnc43)nn2)[C@H](C)C[C@H](C)/C=C/C=C/C=C/1C` [Example 93] the IC50 (P-P70S6K (T389)) was 1 to 10 nM, the IC50 (P-4E-BP1 (T37/46); MDA-MB-468, 4 h) was 3.16 to 31.6 nM and the IC50 (P-Akt (S473); MDA-MB-468, 4 h) was greater than 1000 nM.

With `CO[C@H]1C[C@@H]2CC[C@@H](C)[C@@](O)(O2)C(=O)C(=O)N2CCCC[C@H]2C(=O)O[C@H]([C@H](C)C[C@@H]2CC[C@H](n3nncc3-c3cccc(-c4cnc(N5CCN(Cc6cn(CCOCCOCCOCCOCCC(=O)NCCCCn7nc(-c8ccc9oc(N)nc9c8)c8c(N)ncnc87)nn6)C(CO)C5)nc4)c3)[C@H](OC)C2)CC(=O)[C@H](C)/C=C(\C)[C@@H](O)[C@@H](OC)C(=O)[C@H](C)C[C@H](C)/C=C/C=C/C=C/1C` (stereo partly drawn) [Example 33] the IC50 (P-P70S6K (T389)) was 1 to 10 nM, the IC50 (P-4E-BP1 (T37/46); MDA-MB-468, 4 h) was 3.16 to 31.6 nM and the IC50 (P-Akt (S473); MDA-MB-468, 4 h) was 3.16 to 31.6 nM.

For `CO[C@H]1C[C@@H]2CC[C@@H](C)[C@@](O)(O2)C(=O)C(=O)N2CCCC[C@H]2C(=O)O[C@H]([C@H](C)C[C@@H]2CC[C@@H](OCCCCc3cn(CCOCCOCCOCCOCCOCCOCCC(=O)N4CCC(Cn5nc(-c6ccc7oc(N)nc7c6)c6c(N)ncnc65)CC4)nn3)[C@H](OC)C2)CC(=O)[C@H](C)/C=C(\C)[C@@H](O)[C@@H](OC)C(=O)[C@H](C)C[C@H](C)/C=C/C=C/C=C/1C` [Example 91], the IC50 (P-P70S6K (T389)) was less than 1 nM, the IC50 (P-4E-BP1 (T37/46); MDA-MB-468, 4 h) was less than 3.16 nM and the IC50 (P-Akt (S473); MDA-MB-468, 4 h) was less than 3.16 nM.

For `CCO[C@@H]1C[C@@H]([C@H](C)C[C@@H]2CC[C@@H](O)[C@H](OC)C2)OC(=O)[C@@H]2CCCCN2C(=O)C(=O)[C@]2(O)O[C@@H](CC[C@H]2C)C[C@H](OC)/C(C)=C/C=C/C=C/[C@@H](C)C[C@@H](C)C(=NOCc2cn(CCOCCOCCOCCOCCOCCOCCOCCOCCC(=O)NCCCCn3nc(-c4ccc5oc(N)nc5c4)c4c(N)ncnc43)nn2)[C@H](OC)[C@H](O)/C(C)=C/[C@H]1C` [Example 64], the IC50 (P-P70S6K (T389)) was less than 1 nM, the IC50 (P-4E-BP1 (T37/46); MDA-MB-468, 4 h) was 3.16 to 31.6 nM and the IC50 (P-Akt (S473); MDA-MB-468, 4 h) was 31.6 to 1000 nM.

For `CO[C@H]1C[C@@H]2CC[C@@H](C)[C@@](O)(O2)C(=O)C(=O)N2CCCC[C@H]2C(=O)O[C@H]([C@H](C)C[C@@H]2CC[C@H](n3nncc3-c3cccc(-c4cnc(N5CCN(C(=O)CCc6cn(CCOCCOCCOCCC(=O)NCCCCn7nc(-c8ccc9oc(N)nc9c8)c8c(N)ncnc87)nn6)CC5)nc4)c3)[C@H](OC)C2)CC(=O)[C@H](C)/C=C(\C)[C@@H](O)[C@@H](OC)C(=O)[C@H](C)C[C@H](C)/C=C/C=C/C=C/1C` [Example 48], the IC50 (P-P70S6K (T389)) was less than 1 nM, the IC50 (P-4E-BP1 (T37/46); MDA-MB-468, 4 h) was less than 3.16 nM and the IC50 (P-Akt (S473); MDA-MB-468, 4 h) was 3.16 to 31.6 nM.

Work on `CO[C@H]1C[C@@H]2CC[C@@H](C)[C@@](O)(O2)C(=O)C(=O)N2CCCC[C@H]2C(=O)O[C@H]([C@H](C)C[C@@H]2CC[C@H](n3cc(CCCC(=O)NCCOCCOCCOCCC(=O)NCCOCCOCCC(=O)NCCCCn4nc(-c5ccc6oc(N)nc6c5)c5c(N)ncnc54)nn3)[C@H](OC)C2)C/C(=N/OCc2ccccc2)[C@H](C)/C=C(\C)[C@@H](O)[C@@H](OC)C(=O)[C@H](C)C[C@H](C)/C=C/C=C/C=C/1C` [Example 173] yielded an IC50 (P-P70S6K (T389)) of 10 to 1000 nM, an IC50 (P-4E-BP1 (T37/46); MDA-MB-468, 4 h) greater than 1000 nM and an IC50 (P-Akt (S473); MDA-MB-468, 4 h) greater than 1000 nM.

`CO[C@H]1C[C@@H]2CC[C@@H](C)[C@@](O)(O2)C(=O)C(=O)N2CCCC[C@H]2C(=O)O[C@H]([C@H](C)C[C@@H]2CC[C@@H](OCc3cccc(-c4cnc(N5CCN(C(=O)CCc6cn(CCOCCOCCC(=O)NCCCCn7nc(-c8ccc9oc(N)nc9c8)c8c(N)ncnc87)nn6)CC5)nc4)c3)[C@H](OC)C2)CC(=O)[C@H](C)/C=C(\C)[C@@H](O)[C@@H](OC)C(=O)[C@H](C)C[C@H](C)/C=C/C=C/C=C/1C` [Example 47] was tested, and the IC50 (P-P70S6K (T389)) was less than 1 nM, the IC50 (P-4E-BP1 (T37/46); MDA-MB-468, 4 h) was less than 3.16 nM and the IC50 (P-Akt (S473); MDA-MB-468, 4 h) was 3.16 to 31.6 nM.

In the case of `CO[C@H]1C[C@@H]2CC[C@@H](C)[C@@](O)(O2)C(=O)C(=O)N2CCCC[C@H]2C(=O)O[C@H]([C@H](C)C[C@@H]2CC[C@@H](OCCCCc3cn(CCOCCOCCOCCOCCOCCOCCOCCOCCC(=O)NCCCCn4nc(-c5cc6cc(O)ccc6[nH]5)c5c(N)ncnc54)nn3)[C@H](OC)C2)CC(=O)[C@H](C)/C=C(\C)[C@@H](O)[C@@H](OC)C(=O)[C@H](C)C[C@H](C)/C=C/C=C/C=C/1C` [Example 42], the IC50 (P-P70S6K (T389)) is reported as less than 1 nM, the IC50 (P-4E-BP1 (T37/46); 4 h) is reported as less than 3.16 nM and the IC50 (P-Akt (S473); 4 h) is reported as 3.16 to 31.6 nM.

Work on `CO[C@H]1C[C@@H]2CC[C@@H](C)[C@@](O)(O2)C(=O)C(=O)N2CCCC[C@H]2C(=O)O[C@H]([C@H](C)C[C@@H]2CC[C@H](n3cc(CCCC(=O)NCCOCCOCCOCCC(=O)NCCOCCOCCOCCC(=O)NCCCCn4nc(-c5ccc6oc(N)nc6c5)c5c(N)ncnc54)nn3)[C@H](OC)C2)CC(=O)[C@H](C)/C=C(\C)[C@@H](O)[C@@H](OC)C(=O)[C@H](C)C[C@H](C)/C=C/C=C/C=C/1C` [Example 130] yielded an IC50 (P-P70S6K (T389)) of 1 to 10 nM, an IC50 (P-4E-BP1 (T37/46); MDA-MB-468, 4 h) of 3.16 to 31.6 nM and an IC50 (P-Akt (S473); MDA-MB-468, 4 h) of 3.16 to 31.6 nM.

`CO[C@H]1C[C@@H]2CC[C@@H](C)[C@@](O)(O2)C(=O)C(=O)N2CCCC[C@H]2C(=O)O[C@H]([C@H](C)C[C@@H]2CC[C@H](n3cc(-c4cnc(N5CCN(c6ncc(C(=O)NCCOCCC(=O)NCCCCn7nc(-c8cc9cc(O)ccc9[nH]8)c8c(N)ncnc87)cn6)CC5)nc4)nn3)[C@H](OC)C2)CC(=O)[C@H](C)/C=C(\C)[C@@H](O)[C@@H](OC)C(=O)[C@H](C)C[C@H](C)/C=C/C=C/C=C/1C` [Example 110] was tested, and the IC50 (P-P70S6K (T389)) was less than 1 nM, the IC50 (P-4E-BP1 (T37/46); MDA-MB-468, 4 h) was 31.6 to 1000 nM and the IC50 (P-Akt (S473); MDA-MB-468, 4 h) was greater than 1000 nM.

Molecule `CO[C@H]1C[C@@H]2CC[C@@H](C)[C@@](O)(O2)C(=O)C(=O)N2CCCC[C@H]2C(=O)O[C@H]([C@H](C)C[C@@H]2CC[C@@H](OCCCCc3cn(CCOCCOCCOCCOCCOCCOCCOCCOCCC(=O)N4CCc5cc(Cn6nc(-c7ccc8oc(N)nc8c7)c7c(N)ncnc76)ccc5C4)nn3)[C@H](OC)C2)CC(=O)[C@H](C)/C=C(\C)[C@@H](O)[C@@H](OC)C(=O)[C@H](C)C[C@H](C)/C=C/C=C/C=C/1C` [Example 88] has an IC50 (P-P70S6K (T389)) of less than 1 nM, an IC50 (P-4E-BP1 (T37/46); 4 h) of less than 3.16 nM and an IC50 (P-Akt (S473); 4 h) of 3.16 to 31.6 nM.

`CO[C@@H]1C[C@H](C[C@@H](C)[C@@H]2CC(=O)[C@H](C)/C=C(\C)[C@@H](O)[C@@H](OC)C(=O)[C@H](C)C[C@H](C)/C=C/C=C/C=C(\C)[C@@H](c3ccco3)C[C@@H]3CC[C@@H](C)[C@@](O)(O3)C(=O)C(=O)N3CCCC[C@H]3C(=O)O2)CC[C@H]1OCCCCc1cn(CCOCCOCCOCCOCCOCCOCCOCCOCCC(=O)NCCCCn2nc(-c3cc4cc(O)ccc4[nH]3)c3c(N)ncnc32)nn1` [Example 76] showed an IC50 (P-P70S6K (T389)) of less than 1 nM, an IC50 (P-4E-BP1 (T37/46); MDA-MB-468, 4 h) of less than 3.16 nM and an IC50 (P-Akt (S473); MDA-MB-468, 4 h) of 3.16 to 31.6 nM.
